Assay results from US10899788B2, “Cyclic phosphate substituted nucleoside compounds and methods of use thereof for the treatment of viral diseases” (MERCK SHARP & DOHME CORP., priority 2016, dated 2021).
pEC50: −log10 of the molar value.

Columns and labels:
[1] = test system: HCV replicon cells (1b-Con1); experiment: Replicon activity assay (cell-based anti-HCV activity); conditions: Hepatitis C virus, 72 h, three days post-dosing, replicon RNA level by real-time RT-PCR, read-out: EC50 (1b) Range
Description: (§1) To measure cell-based anti-HCV activity of the compounds of the present invention, replicon cells (1b-Con1) are seeded at 5000 cells/well in 96-well plates one day prior to treatment with a compound of the invention. Various concentrations of a test compound of the invention in DMSO are then added to the replicon cells, with the final concentration of DMSO at 0.5% and fetal bovine serum at 10% in the assay media. Cells are harvested three days post-dosing, and the replicon RNA level is determined using real-time RT-PCR (Taqman assay) with GAPDH RNA as endogenous control. EC50 values are calculated from experiments with 10 serial twofold dilutions of the inhibitor in triplicate. To measure cytotoxicity in replicon cells of an inhibitor, an MTS assay is performed according to the manufacturer's protocol for CellTiter 96 Aqueous One Solution Cell Proliferation Assay (Promega, Cat #G3580) three days post dosing on cells treated identically as in replicon activity assays. […] Cytotoxicity in other types of cells may be measured using the same MTS protocol.
(§2) Data were obtained using this method for selected compounds of the present invention, and are set forth below in Table 2.

[2] = Cytotoxicity assay in replicon cells (MTS); format: cell-based; conditions: HCV replicon cells (1b-Con1), three days post dosing, head prints EDU, method MTS, read-out: CC50 (EDU) Range
Description: as §1, §2

SMILES	pEC50 [1]	CC50 at 3 days [2] [µM]
C#C[C@]1(C)[C@@H]2OP(=O)(OCCCC(=O)OC3CCCC3)OC[C@H]2O[C@H]1n1ccc(=O)[nH]c1=O (stereo partly drawn) [7A or 7B]	≥ 6.60	–
CCOC(=O)CCCCOP1(=O)OC[C@H]2O[C@@H](n3ccc(=O)[nH]c3=O)[C@](C)(N)[C@@H]2O1 (stereo partly drawn) [21A or 21B]	< 5.00	> 50
CC(C)OC(=O)CCCOP1(=O)OC[C@H]2O[C@@H](n3ccc(=O)[nH]c3=O)[C@](C)(C#N)[C@@H]2O1 (stereo partly drawn) [Compound 1A]	5.00 to 6.00	> 50
CC(C)OC(=O)CCCO[P@]1(=O)OC[C@H]2O[C@@H](n3ccc(=O)[nH]c3=O)[C@](C)(C#N)[C@@H]2O1 [Compound 1B]	6.00 to 6.60	> 50
CCOc1nc(N)nc2c1ncn2[C@@H]1O[C@@H]2CO[P@](=O)(OCCCC(=O)OC(C)C)O[C@H]2[C@@]1(C)N [Compound 3A]	< 5.00	> 50
CCOc1nc(N)nc2c1ncn2[C@@H]1O[C@@H]2CO[P@@](=O)(OCCCC(=O)OC(C)C)O[C@H]2[C@@]1(C)N [Compound 3B]	5.00 to 6.00	> 50
CCCCOC(=O)CCCO[P@@]1(=O)OC[C@H]2O[C@@H](n3ccc(=O)[nH]c3=O)[C@](C)(N)[C@@H]2O1 [Compound 4A]	< 5.00	> 50
CCCCOC(=O)CCCO[P@]1(=O)OC[C@H]2O[C@@H](n3ccc(=O)[nH]c3=O)[C@](C)(N)[C@@H]2O1 [Compound 4B]	5.00 to 6.00	> 50
C[C@@]1(N)[C@@H]2O[P@@](=O)(OCCCC(=O)OC3CCCC3)OC[C@H]2O[C@H]1n1ccc(=O)[nH]c1=O [Compound 5A]	< 5.00	> 50
C[C@@]1(N)[C@@H]2O[P@](=O)(OCCCC(=O)OC3CCCC3)OC[C@H]2O[C@H]1n1ccc(=O)[nH]c1=O [Compound 5B]	< 5.00	> 50
C[C@@]1(Cl)[C@@H]2O[P@@](=O)(OCCCC(=O)OC3CCCC3)OC[C@H]2O[C@H]1n1ccc(N)nc1=O [Compound 6A]	< 5.00	> 50
C[C@@]1(Cl)[C@@H]2O[P@](=O)(OCCCC(=O)OC3CCCC3)OC[C@H]2O[C@H]1n1ccc(N)nc1=O [Compound 6B]	≥ 6.60	> 50
CC(C)OC(=O)CCCO[P@@]1(=O)OC[C@H]2O[C@@H](n3ccc(N)nc3=O)[C@](C)(Cl)[C@@H]2O1 [Compound 8A]	5.00 to 6.00	> 50
CC(C)OC(=O)CCCO[P@]1(=O)OC[C@H]2O[C@@H](n3ccc(N)nc3=O)[C@](C)(Cl)[C@@H]2O1 [Compound 8B]	6.00 to 6.60	> 50
CCOc1nc(N)nc2c1ncn2[C@@H]1O[C@@H]2CO[P@](=O)(OCCCC(=O)OC(C)C)O[C@H]2[C@@]1(C)Cl [Compound 9A]	< 5.00	> 50
CCOc1nc(N)nc2c1ncn2[C@@H]1O[C@@H]2CO[P@@](=O)(OCCCC(=O)OC(C)C)O[C@H]2[C@@]1(C)Cl [Compound 9B]	≥ 6.60	> 50
CC(C)OC(=O)CCCO[P@@]1(=O)OC[C@H]2O[C@@H](n3ccc(N)nc3=O)[C@](C)(N)[C@@H]2O1 [Compound 10A]	< 5.00	> 50
CC(C)OC(=O)CCCO[P@]1(=O)OC[C@H]2O[C@@H](n3ccc(N)nc3=O)[C@](C)(N)[C@@H]2O1 [Compound 10B]	< 5.00	> 50
C#C[C@]1(C)[C@@H]2O[P@@](=O)(OCCCC(=O)OC(C)C)OC[C@H]2O[C@H]1n1ccc(=O)[nH]c1=O [Compound 11A]	5.00 to 6.00	> 50
C#C[C@]1(C)[C@@H]2O[P@](=O)(OCCCC(=O)OC(C)C)OC[C@H]2O[C@H]1n1ccc(=O)[nH]c1=O [Compound 11B]	6.00 to 6.60	> 50
CC(C)OC(=O)CCCO[P@@]1(=O)OC[C@H]2O[C@@H](n3ccc(=O)[nH]c3=O)[C@](C)(N)[C@@H]2O1 [Compound 12A]	< 5.00	> 50
CC(C)OC(=O)CCCO[P@]1(=O)OC[C@H]2O[C@@H](n3ccc(=O)[nH]c3=O)[C@](C)(N)[C@@H]2O1 [Compound 12B]	< 5.00	> 50
C#C[C@@]1(O)[C@@H]2O[P@@](=O)(OCCCC(=O)OC(C)C)OC[C@H]2O[C@H]1n1ccc(=O)[nH]c1=O [Compound 13A]	< 5.00	> 50
C#C[C@@]1(O)[C@@H]2O[P@](=O)(OCCCC(=O)OC(C)C)OC[C@H]2O[C@H]1n1ccc(=O)[nH]c1=O [Compound 13B]	5.00 to 6.00	> 50
CC(C)OC(=O)CCCCO[P@@]1(=O)OC[C@H]2O[C@@H](n3ccc(=O)[nH]c3=O)[C@](C)(N)[C@@H]2O1 [Compound 14A]	< 5.00	> 50

SMILES	pEC50 [1]	CC50 at 3 days [2] [µM]
CC(C)OC(=O)CCCCO[P@]1(=O)OC[C@H]2O[C@@H](n3ccc(=O)[nH]c3=O)[C@](C)(N)[C@@H]2O1 [Compound 14B]	< 5.00	> 50
C#C[C@]1(C)[C@@H]2O[P@@](=O)(OCCCCC(=O)OC(C)C)OC[C@H]2O[C@H]1n1ccc(=O)[nH]c1=O [Compound 15A]	< 5.00	> 50
C#C[C@]1(C)[C@@H]2O[P@](=O)(OCCCCC(=O)OC(C)C)OC[C@H]2O[C@H]1n1ccc(=O)[nH]c1=O [Compound 15B]	< 5.00	> 50
C#C[C@]1(C)[C@@H]2O[P@@](=O)(OCCCCC(=O)OC3CCCC3)OC[C@H]2O[C@H]1n1ccc(=O)[nH]c1=O [Compound 16A]	< 5.00	> 50
C#C[C@]1(C)[C@@H]2O[P@](=O)(OCCCCC(=O)OC3CCCC3)OC[C@H]2O[C@H]1n1ccc(=O)[nH]c1=O [Compound 16B]	5.00 to 6.00	> 50
C[C@@]1(N)[C@@H]2O[P@@](=O)(OCCCCC(=O)OC3CCCC3)OC[C@H]2O[C@H]1n1ccc(=O)[nH]c1=O [Compound 17A]	< 5.00	> 50
C[C@@]1(N)[C@@H]2O[P@](=O)(OCCCCC(=O)OC3CCCC3)OC[C@H]2O[C@H]1n1ccc(=O)[nH]c1=O [Compound 17B]	5.00 to 6.00	> 50
CC(C)OC(=O)CCCCO[P@@]1(=O)OC[C@H]2O[C@@H](n3ccc(=O)[nH]c3=O)[C@](C)(Cl)[C@@H]2O1 [Compound 18A]	5.00 to 6.00	> 50
CC(C)OC(=O)CCCCO[P@]1(=O)OC[C@H]2O[C@@H](n3ccc(=O)[nH]c3=O)[C@](C)(Cl)[C@@H]2O1 [Compound 18B]	5.00 to 6.00	> 50
C[C@@]1(Cl)[C@@H]2O[P@@](=O)(OCCCCC(=O)OC3CCCC3)OC[C@H]2O[C@H]1n1ccc(=O)[nH]c1=O [Compound 19A]	5.00 to 6.00	> 50
C[C@@]1(Cl)[C@@H]2O[P@](=O)(OCCCCC(=O)OC3CCCC3)OC[C@H]2O[C@H]1n1ccc(=O)[nH]c1=O [Compound 19B]	6.00 to 6.60	> 50
C#C[C@]1(C)[C@@H]2O[P@@](=O)(OCCCCC(=O)OCC)OC[C@H]2O[C@H]1n1ccc(=O)[nH]c1=O [Compound 20A]	< 5.00	> 50
C#C[C@]1(C)[C@@H]2O[P@](=O)(OCCCCC(=O)OCC)OC[C@H]2O[C@H]1n1ccc(=O)[nH]c1=O [Compound 20B]	< 5.00	> 50
C#C[C@]1(C)[C@@H]2O[P@@](=O)(OCCCCC(=O)OC)OC[C@H]2O[C@H]1n1ccc(=O)[nH]c1=O [Compound 22A]	< 5.00	> 50
C#C[C@]1(C)[C@@H]2O[P@](=O)(OCCCCC(=O)OC)OC[C@H]2O[C@H]1n1ccc(=O)[nH]c1=O [Compound 22B]	< 5.00	> 50
COC(=O)CCCCO[P@@]1(=O)OC[C@H]2O[C@@H](n3ccc(=O)[nH]c3=O)[C@](C)(Cl)[C@@H]2O1 [Compound 23A]	6.00 to 6.60	> 50
COC(=O)CCCCO[P@]1(=O)OC[C@H]2O[C@@H](n3ccc(=O)[nH]c3=O)[C@](C)(Cl)[C@@H]2O1 [Compound 23B]	5.00 to 6.00	> 50
C#C[C@@]1(O)[C@@H]2O[P@@](=O)(OCCCCC(=O)OC3CCCC3)OC[C@H]2O[C@H]1n1ccc(=O)[nH]c1=O [Compound 24A]	5.00 to 6.00	> 50
C#C[C@@]1(O)[C@@H]2O[P@](=O)(OCCCCC(=O)OC3CCCC3)OC[C@H]2O[C@H]1n1ccc(=O)[nH]c1=O [Compound 24B]	≥ 6.60	> 50
CC(C)OC(=O)CCCCCO[P@@]1(=O)OC[C@H]2O[C@@H](n3ccc(=O)[nH]c3=O)[C@](C)(N)[C@@H]2O1 [Compound 25A]	< 5.00	–
CC(C)OC(=O)CCCCCO[P@]1(=O)OC[C@H]2O[C@@H](n3ccc(=O)[nH]c3=O)[C@](C)(N)[C@@H]2O1 [Compound 25B]	< 5.00	–
C#C[C@]1(C)[C@@H]2O[P@@](=O)(OCCC(=O)OC(C)C)OC[C@H]2O[C@H]1n1ccc(=O)[nH]c1=O [Compound 26A]	< 5.00	> 50
CC(C)OC(=O)CCO[P@@]1(=O)OC[C@H]2O[C@@H](n3ccc(=O)[nH]c3=O)[C@](C)(Cl)[C@@H]2O1 [Compound 27A]	5.00 to 6.00	–
CC(C)OC(=O)CCO[P@]1(=O)OC[C@H]2O[C@@H](n3ccc(=O)[nH]c3=O)[C@](C)(Cl)[C@@H]2O1 [Compound 27B]	5.00 to 6.00	–
